Reference: US8853258B2, “C-linked hydroxamic acid derivatives useful as antibacterial agents” (Pfizer Inc., priority 2009, dated 2014)
Converted amounts (≈) assume the structure as drawn. Like-named read-outs stand apart in the source and are kept apart here.

Tests used:
[1] = system: Pseudomonas aeruginosa UI-18: Wild-type (PA-7); experiment: MIC determination (CLSI), PA-7; format: cell-based; settings: for MIC: Pseudomonas aeruginosa, Table 3, read-out: PA-7 MIC
Summary of the method: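 Wild-type P. aeruginosa UI-18 tested for minimum inhibitory concentration. Broth/agar dilution following CLSI standards (M7-A7, M100-S18).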

[2] = system: Acinetobacter baumanii/haemolyticus: Multidrug-resistant clinical isolate (AB-3167); experiment: MIC determination (CLSI), AB-3167; format: cell-based; settings: for MIC: Acinetobacter baumannii, Table 3, read-out: AB-3167 MIC
Summary of the method: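 Multidrug-resistant clinical isolate AB-3167 (A. baumannii/haemolyticus) tested for minimum inhibitory concentration following CLSI dilution susceptibility standards M7-A7 and M100-S18.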

[3] = target: Pseudomonas aeruginosa LpxC enzyme (Pseudomonas aeruginosa (strain ATCC 15692 / DSM 22644 / CIP 104116 / JCM 14847 / LMG 12228 / 1C / PRS 101 / PAO1), UniProt P47205); experiment: IC50 Assay, LpxC Enzyme from P. aeruginosa (PA LpxC Enzyme IC50); format: biochemical
Summary of the method: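 Product formation quantified by RapidFire HTMS after a 1 h enzyme reaction quenched with 1N HCl.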

[4] = system: Escherichia coli EC-1: VOGEL, mouse virulent; experiment: MIC determination (CLSI), EC-1; format: cell-based; settings: for MIC: Escherichia coli, read-out: EC-1 MIC
Summary of the method: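 E. coli Vogel, a mouse-virulent strain (EC-1), was tested. MICs were set by dilution susceptibility testing per CLSI standards M7-A7/M100-S18.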

[5] = system: Klebsiella pneumoniae: Ciprofloxacin-resistant isolate, ESBL, clinical isolate (KP-3700); experiment: MIC determination (CLSI), KP-3700; format: cell-based
Summary of the method: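 Strain KP-3700, a clinical isolate producing extended-spectrum β-lactamases and resistant to ciprofloxacin, was tested. Minimum inhibitory concentrations determined via CLSI dilution methodology (M7-A7; M100-S18).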

[6] = Table 3, read-out: PA LpxC enzyeme IC^50
[7] = Pseudomonas aeruginosa UI-18 (PA-7)
[8] = Acinetobacter baumanii/haemolyticus AB-3167
[9] = P. aeruginosa LpxC enzyme, read-out: PA LpxC enzyeme IC50
[10] = Pseudomonas aeruginosa UI-18 wild-type PA-7
[11] = Acinetobacter baumanii/haemolyticus multidrug-resistant clinical isolate AB-3167
[12] = Escherichia coli EC-1 VOGEL, mouse virulent

In the case of `CC(CCc1ccc(OCCC2CCOCC2)cc1)(C(=O)NO)S(C)(=O)=O` (stereo not drawn) [Example 281, N-hydroxy-2-methyl-2-(methylsulfonyl)-4-{4-[2-(tetrahydro-2H-pyran-4-yl)ethoxy]phenyl}butanamide], the MIC [1] is reported as 32 µg/mL (≈ 80.1 µM), the MIC [2] is reported as ≥ 64 µg/mL and the IC50 [3, 6] is reported as 6.77 nM. For the same molecule, the MIC [4] was ≥ 64 µg/mL and the “KP-3700 MIC” value [5] was “≧64 mg/L”.

With `CC(CCc1ccc(C2=CCCC2)cc1)(C(=O)NO)S(C)(=O)=O` (stereo not drawn) [Example 227] the “PA-7 MIC” value [1, 7] was 16 µg/mL, the “AB-3167 MIC” value [2, 8] was “≧64 mg/L” and the IC50 [3, 9] was 11.4 nM. The “EC-1 MIC” value ([4]; Escherichia coli EC-1) was “≧64 mg/L” and the “KP-3700 MIC” value [5] was “≧64 mg/L”.

`CC(C)(O)C(=O)c1ccc(-c2ccc(CC[C@](C)(C(=O)NO)S(C)(=O)=O)cc2)cc1` [Example 217] was tested, and the “PA-7 MIC” value [1, 7] was 4 µg/mL, the “AB-3167 MIC” value [2, 8] was “≧64 mg/L” and the IC50 [3, 9] was 0.278 nM. For the same molecule, the “EC-1 MIC” value ([4]; Escherichia coli EC-1) was 0.5 µg/mL and the “KP-3700 MIC” value [5] was 4 µg/mL.

For `CC(CCc1ccc(-c2ccc(N3CCN(S(C)(=O)=O)CC3)cc2)cc1)(C(=O)NO)S(C)(=O)=O` (stereo not drawn) [Example 193], the “PA-7 MIC” value [1, 10] was “≧64 mg/L”, the “AB-3167 MIC” value [2, 11] was “≧64 mg/L” and the IC50 [3, 9] was 1.08 nM. The “EC-1 MIC” value [4, 12] was 16 µg/mL and the “KP-3700 MIC” value [5] was “≧64 mg/L”.

`CC(C)c1ccc(-c2noc(COc3ccc(CCC(C)(C(=O)NO)S(C)(=O)=O)cc3)n2)cc1` (stereo not drawn) [Example 299, N-hydroxy-4-(4-{[3-(4-isopropylphenyl)-1,2,4-oxadiazol-5-yl]methoxy}phenyl)-2-methyl-2-(methylsulfonyl)butanamide] was tested, and the MIC [1] was ≥ 64 µg/mL, the MIC [2] was ≥ 64 µg/mL and the IC50 [3, 6] was 3.93 nM. The MIC [4] was 16 µg/mL (≈ 32.8 µM) and the “KP-3700 MIC” value [5] was “≧64 mg/L”.

In the case of `CC(=O)c1ccc(-c2ccc(CCC(C)(C(=O)NO)S(C)(=O)=O)c(F)c2)nc1` (stereo not drawn) [Example 187], the “PA-7 MIC” value [1, 10] is reported as 4 µg/mL, the “AB-3167 MIC” value [2, 11] is reported as “≧64 mg/L” and the IC50 [3, 9] is reported as 0.632 nM. For the same molecule, the “EC-1 MIC” value [4, 12] was 16 µg/mL and the “KP-3700 MIC” value [5] was 16 µg/mL.

With `Cc1ccc(OCc2noc(COc3ccc(CCC(C)(C(=O)NO)S(C)(=O)=O)cc3)n2)cc1` (stereo not drawn) [Example 286, N-hydroxy-2-methyl-4-[4-({3-[(4-methylphenoxy)methyl]-1,2,4-oxadiazol-5-yl}methoxy)phenyl]-2-(methylsulfonyl)butanamide] the MIC [1] was ≥ 64 µg/mL, the MIC [2] was ≥ 64 µg/mL and the IC50 [3, 6] was 11.9 nM. The MIC [4] was 32 µg/mL (≈ 65.4 µM) and the “KP-3700 MIC” value [5] was “≧64 mg/L”.

With `CC(=O)c1ccc(-c2ccc(CCC(C)(C(=O)NO)S(C)(=O)=O)cc2)cc1O` (stereo not drawn) [Example 181] the “PA-7 MIC” value [1, 10] was 2 µg/mL, the “AB-3167 MIC” value [2, 11] was 8 µg/mL and the IC50 [3, 9] was 0.138 nM. The “EC-1 MIC” value [4, 12] was 0.5 µg/mL and the “KP-3700 MIC” value [5] was 8 µg/mL.

With `Cc1oc(-c2cccc(F)c2)nc1COc1ccc(CCC(C)(C(=O)NO)S(C)(=O)=O)cc1` (stereo not drawn) [Example 302, 4-(4-{[2-(3-fluorophenyl)-5-methyl-1,3-oxazol-4-yl]methoxy}phenyl)-N-hydroxy-2-methyl-2-(methylsulfonyl)butanamide] the MIC [1] was ≥ 64 µg/mL, the MIC [2] was ≥ 64 µg/mL and the IC50 [3, 6] was 12.5 nM. For the same molecule, the MIC [4] was 16 µg/mL (≈ 33.6 µM) and the “KP-3700 MIC” value [5] was “≧64 mg/L”.

For `CC(CCc1ccc(OCc2cc(F)ccc2C(F)(F)F)cc1)(C(=O)NO)S(C)(=O)=O` (stereo not drawn) [Example 280, 4-(4-{[5-fluoro-2-(trifluoromethyl)benzyl]oxy}phenyl)-N-hydroxy-2-methyl-2-(methylsulfonyl)butanamide], the MIC [1] was 32 µg/mL (≈ 69 µM), the MIC [2] was 32 µg/mL (≈ 69 µM) and the IC50 [3, 6] was 13.8 nM. The MIC [4] was 8 µg/mL (≈ 17.3 µM) and the “KP-3700 MIC” value [5] was 32 µg/mL.

For `Cc1cc(CCC(C)(C(=O)NO)S(C)(=O)=O)ccc1-c1ccccc1` (stereo not drawn) [Example 159], the “PA-7 MIC” value [1, 10] was 8 µg/mL, the “AB-3167 MIC” value [2, 11] was 32 µg/mL and the IC50 [3, 9] was 5.58 nM. For the same molecule, the “EC-1 MIC” value [4, 12] was 4 µg/mL and the “KP-3700 MIC” value [5] was 16 µg/mL.

With `C[C@@](CCc1ccc(-c2ccc(CC(=O)N3CCC(O)CC3)cc2)cc1)(C(=O)NO)S(C)(=O)=O` [Example 191] the “PA-7 MIC” value [1, 10] was 16 µg/mL, the “AB-3167 MIC” value [2, 11] was “≧64 mg/L” and the IC50 [3, 9] was 2.63 nM. For the same molecule, the “EC-1 MIC” value [4, 12] was “≧64 mg/L” and the “KP-3700 MIC” value [5] was “≧64 mg/L”.
